In ChEMBL document CHEMBL1131542, “A potent dipeptide inhibitor of dipeptidyl peptidase IV” (Bioorg Med Chem Lett, 1998):
Square brackets hold non-standard residues; d marks the D form. Peptide text beside a SMILES is read from it. Tic = O=C(O)[C@@H]1Cc2ccccc2CN1

Molecular target: Dipeptidyl peptidase 4 (Homo sapiens, UniProt P27487)
Assay: Percent inhibition of Dipeptidyl peptidase IV (DPP IV) at a concentration of 10 uM

Dipeptidyl peptidase 4, sequence (P27487 whole entry, looked up): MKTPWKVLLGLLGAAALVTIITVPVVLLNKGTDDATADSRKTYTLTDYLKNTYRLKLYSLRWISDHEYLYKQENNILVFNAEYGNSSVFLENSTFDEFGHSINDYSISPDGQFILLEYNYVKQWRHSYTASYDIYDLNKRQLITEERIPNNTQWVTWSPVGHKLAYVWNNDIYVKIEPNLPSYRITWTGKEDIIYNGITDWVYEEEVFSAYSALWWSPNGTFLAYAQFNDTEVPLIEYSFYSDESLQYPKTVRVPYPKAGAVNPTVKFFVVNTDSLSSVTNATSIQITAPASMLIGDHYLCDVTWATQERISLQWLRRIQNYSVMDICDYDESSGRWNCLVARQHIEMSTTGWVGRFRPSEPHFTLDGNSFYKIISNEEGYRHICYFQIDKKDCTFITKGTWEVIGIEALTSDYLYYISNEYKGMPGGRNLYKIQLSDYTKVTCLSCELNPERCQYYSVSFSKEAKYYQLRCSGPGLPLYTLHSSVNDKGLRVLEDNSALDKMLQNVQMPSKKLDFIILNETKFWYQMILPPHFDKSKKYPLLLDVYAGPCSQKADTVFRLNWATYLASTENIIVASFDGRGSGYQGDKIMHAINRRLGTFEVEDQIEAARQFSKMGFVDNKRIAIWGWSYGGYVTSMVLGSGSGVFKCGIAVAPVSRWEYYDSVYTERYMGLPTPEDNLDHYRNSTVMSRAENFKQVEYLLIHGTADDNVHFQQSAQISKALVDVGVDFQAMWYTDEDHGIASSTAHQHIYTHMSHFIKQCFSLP

SMILES | inhibition
N[C@@H](Cc1c[nH]c2ccccc12)C(=O)N1Cc2ccccc2C[C@H]1C(=O)N[C@@H](CS)C(=O)O (H-Trp-[Tic]-Cys-OH) | 49%
N[C@@H](Cc1c[nH]c2ccccc12)C(=O)N1Cc2ccccc2C[C@H]1C(=O)N[C@@H](Cc1c[nH]cn1)C(=O)O (H-Trp-[Tic]-His-OH) | 35%
NC(=O)C[C@H](NC(=O)[C@@H]1Cc2ccccc2CN1C(=O)[C@@H](N)Cc1c[nH]c2ccccc12)C(=O)O (H-Trp-[Tic]-Asn-OH) | 46%
NCCCC[C@H](NC(=O)[C@@H]1Cc2ccccc2CN1C(=O)[C@@H](N)Cc1c[nH]c2ccccc12)C(=O)O (H-Trp-[Tic]-Lys-OH) | 27%
N[C@@H](Cc1c[nH]c2ccccc12)C(=O)N[C@@H](Cc1ccc(O)cc1)C(=O)O (H-Trp-Tyr-OH) | 10%
C[C@H](O)[C@H](NC(=O)[C@@H]1Cc2ccccc2CN1C(=O)[C@@H](N)Cc1c[nH]c2ccccc12)C(=O)O | 37%
C[C@H](NC(=O)[C@@H]1Cc2ccccc2CN1C(=O)[C@@H](N)Cc1c[nH]c2ccccc12)C(=O)O (H-Trp-[Tic]-Ala-OH) | 43%
CC(C)[C@H](NC(=O)[C@@H](N)Cc1c[nH]c2ccccc12)C(=O)O (H-Trp-Val-OH) | 4%
CC(C)C[C@H](NC(=O)[C@@H]1Cc2ccccc2CN1C(=O)[C@@H](N)Cc1c[nH]c2ccccc12)C(=O)O (H-Trp-[Tic]-Leu-OH) | 25%
N[C@@H](Cc1c[nH]c2ccccc12)C(=O)N1Cc2ccccc2C[C@H]1C(=O)N[C@@H](Cc1c[nH]c2ccccc12)C(=O)O (H-Trp-[Tic]-Trp-OH) | 37%
N[C@@H](Cc1c[nH]c2ccccc12)C(=O)N1Cc2ccccc2C[C@H]1C(=O)N[C@@H](Cc1ccc(O)cc1)C(=O)O (H-Trp-[Tic]-Tyr-OH) | 36%
N[C@@H](Cc1c[nH]c2ccccc12)C(=O)N[C@@H](Cc1c[nH]c2ccccc12)C(=O)O (H-Trp-Trp-OH) | 2%
CSCC[C@H](NC(=O)[C@@H]1Cc2ccccc2CN1C(=O)[C@@H](N)Cc1c[nH]c2ccccc12)C(=O)O (H-Trp-[Tic]-Met-OH) | 43%
N[C@@H](Cc1c[nH]c2ccccc12)C(=O)N1Cc2ccccc2C[C@H]1C(=O)N[C@@H](Cc1ccccc1)C(=O)O (H-Trp-[Tic]-Phe-OH) | 29%
NC(=O)CC[C@H](NC(=O)[C@@H]1Cc2ccccc2CN1C(=O)[C@@H](N)Cc1c[nH]c2ccccc12)C(=O)O (H-Trp-[Tic]-Gln-OH) | 49%
CC[C@@H](C)[C@H](NC(=O)[C@@H]1Cc2ccccc2CN1C(=O)[C@@H](N)Cc1c[nH]c2ccccc12)C(=O)O | 32%
NC(N)=NCCC[C@H](NC(=O)[C@@H]1Cc2ccccc2CN1C(=O)[C@@H](N)Cc1c[nH]c2ccccc12)C(=O)O (H-Trp-[Tic]-Arg-OH) | 38%
N[C@@H](Cc1c[nH]c2ccccc12)C(=O)N[C@@H](CCC(=O)O)C(=O)O (H-Trp-Glu-OH) | 3%
N[C@@H](Cc1c[nH]c2ccccc12)C(=O)N[C@@H](Cc1ccccc1)C(=O)O (H-Trp-Phe-OH) | 0%
N[C@@H](Cc1c[nH]c2ccccc12)C(=O)N1Cc2ccccc2C[C@H]1C(=O)N1CCC[C@H]1C(=O)O (H-Trp-[Tic]-Pro-OH) | 20%
N[C@@H](Cc1c[nH]c2ccccc12)C(=O)N1Cc2ccccc2C[C@H]1C(=O)NCC(=O)O (H-Trp-[Tic]-Gly-OH) | 34%
CC(C)[C@H](NC(=O)[C@@H]1Cc2ccccc2CN1C(=O)[C@@H](N)Cc1c[nH]c2ccccc12)C(=O)O (H-Trp-[Tic]-Val-OH) | 19%
N[C@@H](Cc1c[nH]c2ccccc12)C(=O)N1Cc2ccccc2C[C@H]1C(=O)N[C@@H](CC(=O)O)C(=O)O (H-Trp-[Tic]-Asp-OH) | 38%
N[C@@H](Cc1c[nH]c2ccccc12)C(=O)N1CCC[C@H]1C(=O)O (H-Trp-Pro-OH) | 15%
